# Experimental data from US20230265296A1, “COATING COMPOSITION INCLUDING ALKYL OXIMES” (AdvanSix Resins & Chemicals LLC, priority 2015, published 2023).
# How the values were obtained:
# [1] = tested on: fish; assay: Fish mortality (LC50); assay type: in vivo
# [2] = tested on: algae; assay: Algae growth inhibition (EC50); assay type: cell-based
# [3] = Saturated vapor concentration; assay type: physicochemical
# [4] = Eye irritation categorisation; settings: hazard code
# [5] = Vapor pressure; assay type: physicochemical; settings: at 20° C.
# [6] = Sensitization classification
# [7] = Dermal irritation
SMILES,lethal concentration of 50% mortality (LC50) for fish [1],effective concentration of 50% growth inhabitation (EC50) for algae [2],saturated vapor concentration [3],saturated vapor concentration relative to that of MEKO ([3]; 2-PO versus MEKO),eye irritation category [4],vapor pressure [5],vapor pressure ([5]; listed as 2-pentanone oxime),sensitizer classification [6],dermal irritation [7]
"CCC/C(C)=N\O [2-PO, 2-pentanone oxime]",greater than 100 ppm,88 ppm,300 ppm,less than 25%,serious eye irritation (code H319),about 1.60 mm Hg,about 2.14 hPa,not a sensistizer,no irritation
C/C(=N/O)C(C)C [3-methyl-2-butanone oxime],,,,,,less than 0.975 mm Hg,,,
"CCC(C)=NO [MEKO, methyl ethyl ketoxime, reference compound]",48 ppm,7 ppm,1350 ppm,,,2.00 mm Hg,,,
"CC(CC(C)C)=NO [MIBKO, methyl isobutyl ketoxime]",,,,,,about 0.13 hPa,,,
